# Target: T1, human sEH (Homo sapiens, UniProt P34913)
# T1 construct: made in house
# T1 sequence (P34913 1-555): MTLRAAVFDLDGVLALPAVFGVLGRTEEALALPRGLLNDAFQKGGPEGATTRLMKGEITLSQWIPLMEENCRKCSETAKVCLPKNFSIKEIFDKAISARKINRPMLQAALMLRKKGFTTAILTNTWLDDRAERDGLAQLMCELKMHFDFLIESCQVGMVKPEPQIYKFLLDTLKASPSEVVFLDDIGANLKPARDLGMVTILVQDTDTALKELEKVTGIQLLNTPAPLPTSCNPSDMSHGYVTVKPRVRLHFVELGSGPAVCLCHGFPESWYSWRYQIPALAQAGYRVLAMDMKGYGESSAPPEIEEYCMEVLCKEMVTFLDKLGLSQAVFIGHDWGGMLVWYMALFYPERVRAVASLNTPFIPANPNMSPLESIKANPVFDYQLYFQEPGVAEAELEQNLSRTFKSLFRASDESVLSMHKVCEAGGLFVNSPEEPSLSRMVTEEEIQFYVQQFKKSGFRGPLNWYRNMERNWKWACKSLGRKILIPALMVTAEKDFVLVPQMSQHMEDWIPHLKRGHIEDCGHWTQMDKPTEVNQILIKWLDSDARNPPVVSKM
# Experiment: sEH inhibition, fluorescent assay with cyano(6-methoxy-naphthalen-2-yl)methyl trans-[(3-phenyloxiran-2-yl)methyl]carbonate as substrate
# Format: biochemical
# Conditions: not given
# Protocol: Recombinant mouse sEH and human sEH were produced in a baculovirus expression system and purified by affinity chromatography. […] Protein concentration was quantified by using the Pierce BCA assay using Fraction V bovine serum albumin as the calibrating standard.
# Enzyme activity was measured by monitoring the appearance of 6-methoxy-2-naphthaldehyde. Assays were performed in triplicate. […] IC50 values were determined by regression of at least five datum points, with a minimum of two datum points in the linear region of the curve on either side of the IC50 values. The curve was generated from at least three separate runs, each in triplicate.
row,Structure (SMILES),IC50
1,O=C(NC1CCC(OC2CCCCC2)CC1)NC12CC3CC(CC(C3)C1)C2 (stereo not drawn) [Compound 1097],10 ± 10 nM

# Same assay, conditions: 792 vs. 687; 1001, 1002 and 798 vs. the sulfonylamides
row,fold decrease in inhibition potency on human sEH,Structure (SMILES)
1,1.5 fold,"CCNC(=O)CCCCCCCCCCCNC(=O)NC12CC3CC(CC(C3)C1)C2 [Compound 792, 1-(1-Adamantyl)-3-(11-ethylaminocarbonylundecyl)urea]"

# Same assay, conditions: Table 5; fluorescent-based assay, 0.96 nM human sEH, pH 7.0, [S] = 5 μM; read-out: Human sEH IC50
row,IC50,Structure (SMILES)
1,4.3 nM,"CCNC(=O)CCCCCCCCCCCNC(=O)NC12CC3CC(CC(C3)C1)C2 [Compound 792, 1-(1-Adamantyl)-3-(11-ethylaminocarbonylundecyl)urea]"
2,7.6 nM,"CC(C)=CCCC(C)CCOC(=O)CCCNC(=O)NC12CC3CC(CC(C3)C1)C2 (stereo not drawn) [Compound 798, 4-(3-Adamantan-1-yl-ureido) butyric Acid 3,7-Dimethyl-oct-6-enyl Ester]"

# Same assay, conditions: Table 18b; fluorescent assay with cyano(6-methoxy-naphthalen-2-yl)methyl trans-[(3-phenyloxiran-2-yl)methyl]carbonate as substrate; mean ± SD; read-out: IC50
row,IC50,Structure (SMILES)
1,10 ± 10 nM,O=C(CC12CC3CC(CC(C3)C1)C2)NCCCCCOCCOCCOCc1ccccc1 [Compound 1063-2]
2,10 ± 10 nM,COCC(=O)c1ccc(OC2CCC(NC(=O)NC34CC5CC(CC(C5)C3)C4)CC2)cc1 (stereo not drawn) [Compound 1470]
3,10 ± 10 nM,O=C(O)CCCc1ccc(NC(=O)NC23CC4CC(CC(C4)C2)C3)cc1 [Compound 1224]
4,30 ± 10 nM,O=C(CCCCCCOCCc1ccccc1)NC12CC3CC(CC(C3)C1)C2 [Compound 1070]
5,40 ± 10 nM,CCOC(=O)c1cccc(NC(=O)CC23CC4CC(CC(C4)C2)C3)c1 [Compound 1452]
6,10 ± 10 nM,O=C(Nc1ccc(C(=O)c2ccccc2)cc1)NC12CC3CC(CC(C3)C1)C2 [Compound 1219]
7,170 ± 10 nM,O=C(O)CCCCCNC(=O)NC12CC3CC(CC(C3)C1)C2 [Compound 1213]
8,10 ± 10 nM,O=C(CCCCCCOCCCCCc1ccccc1)NC12CC3CC(CC(C3)C1)C2 [Compound 1062]
9,10 ± 10 nM,COCOc1cc(F)c(COC2CCC(NC(=O)NC34CC5CC(CC(C5)C3)C4)CC2)c(F)c1 (stereo not drawn) [Compound 1105]
10,10 ± 10 nM,CC(C)(Oc1ccc(NC(=O)NC23CC4CC(CC(C4)C2)C3)cc1)C(=O)OCc1ccccc1 [Compound 1441]
11,10 ± 10 nM,O=C(CCCCCCOCCCCc1ccccc1)NC12CC3CC(CC(C3)C1)C2 [Compound 1028]
12,10 ± 10 nM,CCOC(=O)C(F)(F)Oc1ccc(NC(=O)NC23CC4CC(CC(C4)C2)C3)cc1 [Compound 1443]
13,10 ± 10 nM,CCOCCOCCOCCOC(=O)CCCCCCCCCCCNC(=O)NC12CC3CC(CC(C3)C1)C2 [Compound 1067]
14,10 ± 10 nM,O=C(Nc1cccc(OC(=O)c2ccccc2)c1)NC12CC3CC(CC(C3)C1)C2 [Compound 1222]
15,10 ± 10 nM,O=C(NCCCCCCCCO)NC12CC3CC(CC(C3)C1)C2 [Compound 1449]
16,50 ± 10 nM,O=C(CC12CC3CC(CC(C3)C1)C2)NC1CCC(O)CC1 (stereo not drawn) [Compound 1063-1]
17,10 ± 10 nM,COc1ccc(NC(=O)NC23CC4CC(CC(C4)C2)C3)cc1O [Compound 1191]
18,10 ± 10 nM,CCC(=O)Oc1cccc(NC(=O)NC23CC4CC(CC(C4)C2)C3)c1 [Compound 1194]
19,60 ± 10 nM,O=C(Nc1cccc(C(=O)NCCN2CCOCC2)c1)NC12CC3CC(CC(C3)C1)C2 [Compound 1165]
20,10 ± 10 nM,O=C(Cc1ccc(NC(=O)NC23CC4CC(CC(C4)C2)C3)cc1)NC(C(=O)NCC(C(=O)O)c1c[nH]c2ccccc12)c1ccccc1 (stereo not drawn) [Compound 1425]

row,IC50,Structure (SMILES)
1,10 ± 10 nM,O=C(NC1CCC(O)CC1)C12CC3CC(CC(C3)C1)C2 (stereo not drawn) [Compound 1142]
2,10 ± 10 nM,O=C(Nc1cccc(Oc2ccccc2)c1)NC12CC3CC(CC(C3)C1)C2 [Compound 1195]
3,10 ± 10 nM,COCC(=O)c1ccc(OC2CCC(NC(=O)NC34CC5CC(CC(C5)C3)C4)CC2)cc1 (stereo not drawn) [Compound 1469]
4,10 ± 10 nM,CCOCCOCCOc1ccc(C(OC(=O)CCCNC(=O)NC23CC4CC(CC(C4)C2)C3)c2ccccc2)cc1 (stereo not drawn) [Compound 1438]
5,20 ± 10 nM,O=C(Nc1cc(O)ccc1Cl)NC12CC3CC(CC(C3)C1)C2 [Compound 1189]
6,10 ± 10 nM,O=C(NC1CCC(OCc2ccccc2OC(F)(F)F)CC1)NC12CC3CC(CC(C3)C1)C2 (stereo not drawn) [Compound 1144]
7,10 ± 10 nM,O=C(NC1CCCCCC1)NC1CCC(Oc2ccc(F)cc2)CC1 (stereo not drawn) [Compound 1515]
8,10 ± 10 nM,O=C(O)Cc1ccc(NC(=O)NC23CC4CC(CC(C4)C2)C3)cc1 [Compound 1178]
9,10 ± 10 nM,O=C(Nc1ccccc1)NC1CCC(OCc2c(F)cccc2F)CC1 (stereo not drawn) [Compound 1147]
10,20 ± 10 nM,O=C(O)Cc1cccc(NC(=O)NC23CC4CC(CC(C4)C2)C3)c1 [Compound 1225]
11,10 ± 10 nM,O=C(O)CCc1ccc(NC(=O)NC23CC4CC(CC(C4)C2)C3)cc1 [Compound 1223]
12,10 ± 10 nM,O=C(Nc1ccc(Br)cc1)NC1CCC(Oc2ccc(F)cc2)CC1 (stereo not drawn) [Compound 1516]
13,30 ± 10 nM,O=C(CC12CC3CC(CC(C3)C1)C2)Nc1cccc(C(=O)O)c1 [Compound 1453]
14,10 ± 10 nM,O=C(NC1CCCC(C(=O)OC(c2ccccc2)c2ccccc2)C1)NC12CC3CC(CC(C3)C1)C2 (stereo not drawn) [Compound 1437]
15,10 ± 10 nM,COCOc1cc(F)c(COC2CCC(NC(=O)NC34CC5CC(CC(C5)C3)C4)CC2)c(F)c1 (stereo not drawn) [Compound 1106]
16,40 ± 10 nM,O=C(CC12CC3CC(CC(C3)C1)C2)NC12CC3CC(CC(O)(C3)C1)C2 [Compound 1064]
17,10 ± 10 nM,O=C(NCCCCCOCCN1CCOCC1)NC12CC3CC(CC(C3)C1)C2 [Compound 1196]
18,10 ± 10 nM,CCOCCOCC(OC(=O)CCCNC(=O)NC12CC3CC(CC(C3)C1)C2)c1ccccc1 (stereo not drawn) [Compound 1439]
19,10 ± 10 nM,CC(=O)c1cccc(NC(=O)NC23CC4CC(CC(C4)C2)C3)c1 [Compound 1192]

# More lines, now with the values behind:
row,Structure (SMILES),IC50
1,O=C(NC1CCCCC1)Oc1cccc(-c2ccccc2)c1 [Compound 1229],920 ± 10 nM
2,O=C(NC1CCC(C(=O)O)CC1)NC12CC3CC(CC(C3)C1)C2 (stereo not drawn) [Compound 1173],10 ± 10 nM
3,O=C(NC1CCC(Oc2ccc(C(F)(F)F)cn2)CC1)NC12CC3CC(CC(C3)C1)C2 (stereo not drawn) [Compound 1513],50 ± 10 nM
4,CCOCCOCCOCCCCCNC(=O)NC1C2CC3CC(C2)CC1C3 (stereo not drawn) [Compound 1172],10 ± 10 nM
5,CC(Oc1ccc(NC(=O)NC23CC4CC(CC(C4)C2)C3)cc1)C(=O)O (stereo not drawn) [Compound 1187],10 ± 10 nM
6,CC(=O)Oc1ccc(NC(=O)NC23CC4CC(CC(C4)C2)C3)cc1 [Compound 1220],10 ± 10 nM
7,CC(=O)c1ccc(NC(=O)NC23CC4CC(CC(C4)C2)C3)cc1 [Compound 1217],10 ± 10 nM
8,O=C(Nc1ccc(OCCN2CCOCC2)cc1Cl)NC12CC3CC(CC(C3)C1)C2 [Compound 1448],10 ± 10 nM
9,CC(=O)Oc1cccc(NC(=O)NC23CC4CC(CC(C4)C2)C3)c1 [Compound 1193],10 ± 10 nM
10,O=C(CC12CC3CC(CC(C3)C1)C2)Nc1ccc(O)cc1 [Compound 1454],30 ± 10 nM
11,O=C(NC1CCC(OC(=O)c2ccccc2)CC1)NC12CC3CC(CC(C3)C1)C2 (stereo not drawn) [Compound 1074],10 ± 10 nM
12,O=C(Nc1ccccc1)NC1CCC(OCc2c(F)cccc2F)CC1 (stereo not drawn) [Compound 1148],10 ± 10 nM
13,O=C(Nc1ccc(Cl)cc1)NC1CCC(Oc2ccc(F)cc2)CC1 (stereo not drawn) [Compound 1514],10 ± 10 nM
14,CCOC(=O)C(C)Oc1ccc(NC(=O)NC23CC4CC(CC(C4)C2)C3)cc1 (stereo not drawn) [Compound 1186],10 ± 10 nM
15,O=C(CCCCCNC(=O)NC12CC3CC(CC(C3)C1)C2)NC(C(=O)NC(C(=O)O)c1c[nH]c2ccccc12)c1ccccc1 (stereo not drawn) [Compound 1084],10 ± 10 nM
16,CC(C)N(C(=O)Oc1cccc(-c2ccccc2)c1)C(C)C [Compound 1460],10920 ± 10 nM
17,O=C(NC1CCC(OCc2ccccc2C(F)(F)F)CC1)NC12CC3CC(CC(C3)C1)C2 (stereo not drawn) [Compound 1143],10 ± 10 nM
18,O=C(NCCOCc1ccc2ccccc2c1)NCCOCc1ccc2ccccc2c1 [Compound 1117],1120 ± 10 nM
19,CCOCCOCCOCCCCCNC(=O)NC1C2CC3CC(C2)CC1C3 (stereo not drawn) [Compound 1128],10 ± 10 nM
20,CCCCCNC(=O)NCCOCc1ccc2ccccc2c1 [Compound 1116],260 ± 10 nM
21,CCC(=O)Oc1ccc(NC(=O)NC23CC4CC(CC(C4)C2)C3)cc1 [Compound 1221],10 ± 10 nM
22,O=C(Nc1ccc(O)cc1)NC12CC3CC(CC(C3)C1)C2 [Compound 1183],20 ± 10 nM
23,O=C(Nc1ccc(OC(F)(F)C(=O)O)cc1)NC12CC3CC(CC(C3)C1)C2 [Compound 1444],10 ± 10 nM
24,CCOC(=O)c1ccc(C(OC(=O)C2CCCC(NC(=O)NC34CC5CC(CC(C5)C3)C4)C2)c2ccccc2)cc1 (stereo not drawn) [Compound 1066],10 ± 10 nM
25,O=C(NC1CCC(OCc2ccccc2F)CC1)NC12CC3CC(CC(C3)C1)C2 (stereo not drawn) [Compound 1150],10 ± 10 nM
26,O=C(O)CCCCCCCNC(=O)NC12CC3CC(CC(C3)C1)C2 [Compound 1214],10 ± 10 nM
27,CC(C)(Oc1ccc(NC(=O)NC23CC4CC(CC(C4)C2)C3)cc1)C(=O)O [Compound 1442],150 ± 10 nM
28,CC(C)N(C(=O)Oc1cccc(-c2ccccc2)c1)C(C)C [Compound 1463],11890 ± 10 nM
29,O=C(NCCCC(=O)OC(c1ccccc1)c1ccccc1)NC12CC3CC(CC(C3)C1)C2 [Compound 1164],10 ± 10 nM

# — patent US8476043B2, “Inhibitors for the soluble epoxide hydrolase” (The Regents of the University of California, priority 2004, dated 2013)
